Results: article PMC5083757, “Effect of veliparib (ABT-888) on cardiac repolarization in patients with advanced solid tumors: a randomized, placebo-controlled crossover study” (Cancer Chemotherapy and Pharmacology, 2016)
Read-outs that look alike come from different tables or passages of the source. Marks after values point to notes of the source that are not given here.

Assays:
[1] = system: patients with BRCA1/2-mutated or wild-type tumors; parameters: method as in earlier work; settings: cited from earlier work
[2] = system: patients with advanced solid tumors; assay: Safety: treatment-emergent adverse events; assay type: in vivo, human; settings: for TEAE: AE leading to discontinuation / TEAE: Abdominal pain / TEAE: Any AE / TEAE: Any fatal AE / TEAE: Any serious AE / TEAE: Back pain / TEAE: Constipation / TEAE: Decreased appetite / TEAE: Dehydration / TEAE: Diarrhea / TEAE: Dizziness / TEAE: Dysgeusia / TEAE: Fatigue / TEAE: Hypomagnesemia / TEAE: Myalgia / TEAE: NCI CTCAE grade 3 or 4 / TEAE: Nausea / TEAE: Neck pain / TEAE: Vomiting: N = 47; for TEAE: At least possibly related to study drug: N = 47, as assessed by investigator; for Deaths: N = 47, includes non-treatment-emergent deaths
Method: Safety was evaluated by AE monitoring, vital signs, physical examination, and laboratory testing throughout the study. Treatment-emergent AEs (TEAEs) were recorded from the time of first dose of study drug until 30 days from the last day of dosing or discontinuation, or until the first dose of study drug for patients enrolling in the NCT02033551 extension study. TEAEs were classified by Medical Dictionary for Regulatory Activities version 17.0 system organ class and preferred term. The severity of AEs was rated according to the National Cancer Institute Common Terminology Criteria for Adverse Events version 4.0. The safety population consisted of all patients’ data.

[3] = system: patients with advanced solid tumors; assay: Exposure-response model (veliparib plasma concentration vs ∆∆QTcF); assay type: in vivo, human; settings: linear mixed effects model
Method: To establish the nonsignificance of a hysteresis effect, the criteria discussed in Darpo et al. were applied. Subsequently, linear mixed effects models were tested, with or without an additional lagged effect compartment, depending on the outcome of the test for hysteresis. A final model was chosen based on goodness of fit, plausibility of the parameters, and Bayesian information criterion (BIC). The relationship between ∆∆QTcF and veliparib concentration was modeled using the following equation: ΔΔQTcFi,j=ηi(2)+(Slope0+ηi(1))×Concentrationi,j+εi,j for subject i and time point j. η ^(2) represents the inter-subject variability on intercept (fixed effect on intercept is set to zero). Slope0 represents fixed effect on slope. η ^(1) represents the inter-subject variability of the Slope. ε i,j is the residual variability in subject i at time j.

[4] = system: patients with advanced solid tumors; assay: ECG assessment of QTcF interval, single-dose placebo-controlled crossover study; assay type: in vivo, human
Excerpt: This was a multicenter phase 1, single-dose, double-blind, placebo-controlled, randomized, 3-period, 6-sequence crossover study (NCT02009631). The primary objective was to evaluate the effect of veliparib on corrected QT interval using Fridericia’s formula (QTcF) in patients with solid tumors. Secondary objectives were to assess the pharmacokinetics, safety, and tolerability of single-dose veliparib.
(§1) Following screening, on the morning of day 1 of each period, eligible patients received a single dose of veliparib 200 mg, veliparib 400 mg, or placebo according to the treatment sequence assigned at randomization, administered orally between 8.00 and 10.00 AM, and approximately 30 min after the start of a low-fat breakfast. Each treatment period lasted 3–7 days, allowing for ≥3 days of drug washout between periods. After study completion, patients were permitted to enter an extension study (NCT02033551) to assess the safety of veliparib as monotherapy or in combination with chemotherapy.
Serial, resting 12-lead ECG measurements were performed at screening, on day 1 of each period at 0 h (pre-dose), and at 0.5, 1, 2, 3, 10, and 24 h post-dose, and at the final study visit on day 3 of period 3. ECGs were performed in triplicate except for a single ECG at screening. All ECG tracings were evaluated using the automated signal analysis algorithm of eECG/ABBIOS to measure predefined ECG intervals (RR, PR, QT, and QRS duration). All ECGs were manually verified and adjudicated by an expert over-reader who was blinded to treatment, time, and patient identification. T- and U-wave morphologies were independently reviewed by a qualified cardiologist who was similarly blinded to treatment, time, and patient identification. QTcF was determined as follows: QTCF=QT/RR3
A linear mixed effects model was used for the analysis of baseline-adjusted QTcF intervals (∆QTcF) for the first 24 h after dosing with either placebo, veliparib 200 mg, or veliparib 400 mg. The primary endpoint was the baseline-adjusted difference in mean QTcF between the veliparib 400 mg dose and placebo (∆∆QTcF) at six post-dose time points. Absence of QTcF effect was established if the 95 % upper confidence bound for the mean ∆∆QTcF between veliparib 400 mg and placebo was below the 10 ms threshold of clinical significance for all post-dose time points, in accordance with ICH E14 guidelines. For the QT/QTc, PR, and QRS interval variables, appropriate cutoff points defining the categories of the largest change from baseline were determined. For QTc, the cutoff points for these categories were as specified in the ICH E14 guidelines. The dataset for ECG evaluations included all available patients’ data.

[5] = system: dogs; settings: preclinical studies in dogs; cited from earlier work
[6] = Pharmacokinetic assessment of veliparib plasma concentrations after a single oral dose; assay type: in vivo, human; settings: for half-life / AUC(0-inf) / Vd/F / AUC(0-t) / Cmax / Tmax: human, plasma; for Vd/F: read-out: VZ/F
Method: as §1
In each period, blood samples were collected for pharmacokinetic analysis at 0 h (pre-dose), and at 0.5, 1, 2, 3, 10, and 24 h post-dose. Plasma concentrations of veliparib were determined using a validated online solid-phase extraction followed by liquid chromatography with tandem mass spectrometric detection with a lower limit of quantitation for veliparib of 1.05 ng/mL. Veliparib pharmacokinetic parameters were estimated using non-compartmental methods.

[7] = any of the three regimens (200 mg, 400 mg, placebo)
[8] = veliparib 200 mg single oral dose vs placebo
[9] = veliparib 400 mg single oral dose vs placebo
[10] = 200 mg single oral dose, N = 46, mean ± SD
[11] = 400 mg single oral dose, N = 46, mean ± SD
[12] = 200 mg single oral dose, N = 47, mean ± SD

C[C@]1(c2nc3c(C(N)=O)cccc3[nH]2)CCCN1 [Veliparib]
dose-limiting toxicities ([1]; at 400 mg twice daily, in patients with BRCA1/2-mutated and wild-type tumors, respectively): grade 3 nausea/vomiting and grade 2 seizure | maximum tolerated dose of single-agent veliparib ([1]; phase 1 study, patients with BRCA1/2-mutated or wild-type tumors): 400 mg twice daily | TEAE: AE leading to discontinuation ([2]; 200 mg): 0 n (%) | TEAE: Abdominal pain ([2]; 200 mg): 2 (4.3) n (%) | TEAE: Any AE ([2]; 200 mg): 17 (36.2) n (%) | TEAE: Any fatal AE ([2]; 200 mg): 0 n (%) | TEAE: Any serious AE ([2]; 200 mg): 0 n (%) | TEAE: Back pain ([2]; 200 mg): 0 n (%) | TEAE: Constipation ([2]; 200 mg): 0 n (%) | TEAE: Decreased appetite ([2]; 200 mg): 0 n (%) | TEAE: Dehydration ([2]; 200 mg): 2 (4.3) n (%) | TEAE: Diarrhea ([2]; 200 mg): 1 (2.1) n (%) | TEAE: Dizziness ([2]; 200 mg): 0 n (%) | TEAE: Dysgeusia ([2]; 200 mg): 0 n (%) | TEAE: Fatigue ([2]; 200 mg): 2 (4.3) n (%) | TEAE: Hypomagnesemia ([2]; 200 mg): 0 n (%) | TEAE: Myalgia ([2]; 200 mg): 4 (8.5) n (%) | TEAE: NCI CTCAE grade 3 or 4 ([2]; 200 mg): 1 (2.1) n (%) | TEAE: Nausea ([2]; 200 mg): 6 (12.8) n (%) | TEAE: Neck pain ([2]; 200 mg): 0 n (%) | TEAE: Vomiting ([2]; 200 mg): 2 (4.3) n (%) | TEAE: At least possibly related to study drug ([2]; 200 mg): 7 (14.9) n (%) | Deaths ([2]; 200 mg): 0 n (%) | TEAE: AE leading to discontinuation ([2]; 400 mg): 1 (2.1) n (%) | TEAE: Abdominal pain ([2]; 400 mg): 2 (4.3) n (%) | TEAE: Any AE ([2]; 400 mg): 23 (48.9) n (%) | TEAE: Any fatal AE ([2]; 400 mg): 0 n (%) | TEAE: Any serious AE ([2]; 400 mg): 0 n (%) | TEAE: Back pain ([2]; 400 mg): 2 (4.3) n (%) | TEAE: Constipation ([2]; 400 mg): 1 (2.1) n (%) | TEAE: Decreased appetite ([2]; 400 mg): 1 (2.1) n (%) | TEAE: Dehydration ([2]; 400 mg): 0 n (%) | TEAE: Diarrhea ([2]; 400 mg): 3 (6.4) n (%) | TEAE: Dizziness ([2]; 400 mg): 3 (6.4) n (%) | TEAE: Dysgeusia ([2]; 400 mg): 2 (4.3) n (%) | TEAE: Fatigue ([2]; 400 mg): 3 (6.4) n (%) | TEAE: Hypomagnesemia ([2]; 400 mg): 0 n (%) | TEAE: Myalgia ([2]; 400 mg): 1 (2.1) n (%) | TEAE: NCI CTCAE grade 3 or 4 ([2]; 400 mg): 1 (2.1) n (%) | TEAE: Nausea ([2]; 400 mg): 4 (8.5) n (%) | TEAE: Neck pain ([2]; 400 mg): 2 (4.3) n (%) | TEAE: Vomiting ([2]; 400 mg): 4 (8.5) n (%) | TEAE: At least possibly related to study drug ([2]; 400 mg): 11 (23.4) n (%) | Deaths ([2]; 400 mg): 0 n (%) | TEAE myalgia ([2]; veliparib 200 mg): 8.5% | TEAE nausea ([2]; veliparib 200 mg): 12.8% | patients experiencing treatment-emergent adverse events ([2]; veliparib 200 mg): 36.2% | TEAE diarrhea ([2]; veliparib 400 mg): 6.4% | TEAE dizziness ([2]; veliparib 400 mg): 6.4% | TEAE fatigue ([2]; veliparib 400 mg): 6.4% | TEAE nausea ([2]; veliparib 400 mg): 8.5% | TEAE vomiting ([2]; veliparib 400 mg): 8.5% | patients experiencing treatment-emergent adverse events ([2]; veliparib 400 mg): 48.9% | predicted mean ∆∆QTcF at geometric mean of Cmax ([3]; 200 mg dosing): 2.45 ms | predicted upper 95th percentile ∆∆QTcF at geometric mean of Cmax ([3]; 200 mg dosing): 3.28 ms | predicted mean ∆∆QTcF at geometric mean of Cmax ([3]; 400 mg dosing): 4.62 ms | predicted upper 95th percentile ∆∆QTcF at geometric mean of Cmax ([3]; 400 mg dosing): 6.19 ms | patients with QTcF value greater than 480 ms [4, 7]: No patient | patients with change from baseline in QTcF interval greater than 30 ms [4, 7]: No patient | maximum 95 % upper confidence bound for mean ∆∆QTcF [4, 8]: 6.1 ms | maximum mean ∆∆QTcF [4, 8]: 3.6 ms | maximum 95 % upper confidence bound for mean ∆∆QTcF [4, 9]: 8.9 ms | maximum mean ∆∆QTcF [4, 9]: 6.4 ms | effect on corrected QT (QTc) interval [5]: mild but concentration-dependent increase | AUC∞/dose [6, 10]: 59.9 ± 19.9^b (ng h/mL)/mg | CL/F [6, 10]: 18.2 ± 5.09^b L/h | Cmax/dose [6, 10]: 6.62 ± 1.89^b (ng/mL)/mg | AUC∞/dose [6, 11]: 63.8 ± 20.9 (ng h/mL)/mg | CL/F [6, 11]: 17.3 ± 5.27 L/h | Cmax/dose [6, 11]: 6.51 ± 2.12 (ng/mL)/mg | half-life ([6]; oral, similar for the 200 mg and 400 mg dose groups, read-out: terminal phase elimination half-life (t1/2) (converted)): ~5.5 h | half-life ([6]; 200 mg single oral dose, N = 46, harmonic mean ± pseudo SD, read-out: t1/2 (converted)): 5.3 ± 1.1 h | AUC(0-inf) [6, 10]: 12000 ± 3980 ng·h/mL | Vd/F [6, 10]: 141 ± 42.8 L | AUC(0-t) [6, 12]: 11100 ± 3120 ng·h/mL | Cmax [6, 12]: 1320 ± 378 ng/mL | Tmax [6, 12]: 2.4 ± 0.7 h | half-life ([6]; 400 mg single oral dose, N = 46, harmonic mean ± pseudo SD, read-out: t1/2 (converted)): 5.4 ± 1.3 h | AUC(0-inf) [6, 11]: 25500 ± 8370 ng·h/mL | AUC(0-t) [6, 11]: 23800 ± 7100 ng·h/mL | Cmax [6, 11]: 2610 ± 847 ng/mL | Tmax [6, 11]: 2.5 ± 0.6 h | Vd/F [6, 11]: 138 ± 48.4 L | mean time to Cmax (Tmax) ([6]; similar for the 200 mg and 400 mg dose groups): approximately 2.5 h | systemic exposure vs dose ([6]; single oral doses 200 mg and 400 mg): increased in a dose-proportional manner
